pIC50: −log10 of the molar value. Read-outs that look alike come from different tables or passages of the source.
Experiments:
HT-29 cells = assay: Inhibition of cell proliferation (MTS), HT-29 cells; type: cell-based; conditions: Homo sapiens, HT-29, 72 h; for pIC50: HT-29 cells, 5000 cells/well, 72 h, MTS, absorbance 490 nm, read-out: HT29 IC50
Description: (§1) MTS testing kit was purchased from Promega. The DMEM, RPMI-1640 and Fetal bovine serum were purchased from Gibco. Dimethyl sulfoxide (DMSO) was purchased from Sigma.
(§2) To investigate whether a compound is able to inhibit the activity of MEK in cells, a mechanism-based assay using A-375 and HT-29 cell was developed. In this assay, inhibition of MEK was detected by the inhibition of A-375 and HT-29 cells proliferation. A-375 and HT-29 cells were cultured in culture flasks to 40-80% confluence respectively in DMEM and RPMI-1640 plus 10% fetal bovine serum. Cells were collected and plated onto 96-well plates at desired cell density (A-375: 3000 cells/well; HT-29: 5000 cells/well). Plates were incubated overnight at 37° C., with 5% CO2 to adhere. Compounds were added to the plates. The final compound concentrations were […], 12.35, 4.12, 1.37, 0.46 and 0.15 nM, respectively. Place plates at 37° C., with 5% CO2 for 72 h. 10 μl MTS were added to each well and incubate the plates for exactly 2 hours. Absorbance was measured at 490 nm. […] was calculated using GraphPad Prism 5.0.

A-375 cells = assay: Inhibition of cell proliferation (MTS), A-375 cells; type: cell-based; conditions: Homo sapiens, A-375, 72 h; for pIC50: A-375 cells, 3000 cells/well, 72 h, MTS, absorbance 490 nm, read-out: A375 IC50
Description: as §1, §2

Row | SMILES | pIC50 (HT-29 cells) | pIC50 (A-375 cells) | IC50 (HT-29 cells; read-out: HT29 IC50 (nM)) | IC50 (A-375 cells; read-out: A375 IC50 (nM))
1 | CC(=O)Nc1cccc(-c2nn(C3CC3)c(=O)c3c(Nc4ccc(I)cc4F)c(F)c(=O)n(C)c23)c1 [Example 1, N-(3-(6-cyclopropyl-3-fluoro-4-(2-fluoro-4-iodophenylamino)-1-methyl-2,5-dioxo-1,2,5,6-tetrahydropyrido[2,3-d]pyridazin-8-yl)phenyl)acetamide] | – | – | 2.4 nM | 1.2 nM
2 | CCC(=O)Nc1cccc(-c2nn(C3CC3)c(=O)c3c(Nc4ccc(I)cc4F)c(F)c(=O)n(C)c23)c1 [Example 2, N-(3-(6-cyclopropyl-3-fluoro-4-(2-fluoro-4-iodophenylamino)-1-methyl-2,5-dioxo-1,2,5,6-tetrahydropyrido[2,3-d]pyridazin-8-yl)phenyl)propionamide] | 7.86 | 7.97 | – | –
3 | Cn1c(=O)c(F)c(Nc2ccc(I)cc2F)c2c(=O)n(C3CC3)nc(-c3cccc(NC(=O)C4CC4)c3)c21 [Example 4, N-(3-(6-cyclopropyl-3-fluoro-4-(2-fluoro-4-iodophenylamino)-1-methyl-2,5-dioxo-1,2,5,6-tetrahydropyrido[2,3-d]pyridazin-8-yl)phenyl)cyclopropanecarboxamide] | 7.38 | 7.58 | – | –
4 | Cn1c(=O)c(F)c(Nc2ccc(I)cc2F)c2c(=O)n(C3CC3)nc(-c3cccc(NS(C)(=O)=O)c3)c21 [Example 5, N-(3-(6-cyclopropyl-3-fluoro-4-(2-fluoro-4-iodophenylamino)-1-methyl-2,5-dioxo-1,2,5,6-tetrahydropyrido[2,3-d]pyridazin-8-yl)phenyl)methanesulfonamide] | 8.29 | 8.40 | – | –
5 | C=CCn1nc(-c2cccc(NS(=O)(=O)C3CC3)c2)c2c(c(Nc3ccc(I)cc3F)c(F)c(=O)n2C)c1=O [Example 8, N-(3-(6-allyl-3-fluoro-4-(2-fluoro-4-iodophenylamino)-1-methyl-2,5-dioxo-1,2,5,6-tetrahydropyrido[2,3-d]pyridazin-8-yl)phenyl)cyclopropanesulfonamide] | 8.27 | 8.27 | – | –
6 | CC(=O)Nc1cccc(-c2nn(C(C)C)c(=O)c3c(Nc4ccc(I)cc4F)c(F)c(=O)n(C)c23)c1 [Example 9, N-(3-(3-fluoro-4-(2-fluoro-4-iodophenylamino)-6-isopropyl-1-methyl-2,5-dioxo-1,2,5,6-tetrahydropyrido[2,3-d]pyridazin-8-yl)phenyl)acetamide] | 7.33 | 7.36 | – | –
7 | CC(C)C(=O)Nc1cccc(-c2nn(C(C)C)c(=O)c3c(Nc4ccc(I)cc4F)c(F)c(=O)n(C)c23)c1 [Example 11, N-(3-(3-fluoro-4-(2-fluoro-4-iodophenylamino)-6-isopropyl-1-methyl-2,5-dioxo-1,2,5,6-tetrahydropyrido[2,3-d]pyridazin-8-yl)phenyl)isobutyramide] | 6.74 | 6.70 | – | –
8 | CC(C)n1nc(-c2cccc(NC(=O)C3CC3)c2)c2c(c(Nc3ccc(I)cc3F)c(F)c(=O)n2C)c1=O [Example 12, N-(3-(3-fluoro-4-(2-fluoro-4-iodophenylamino)-6-isopropyl-1-methyl-2,5-dioxo-1,2,5,6-tetrahydropyrido[2,3-d]pyridazin-8-yl)phenyl)cyclopropanecarboxamide] | 6.72 | 6.70 | – | –
9 | CC(C)n1nc(-c2cccc(NS(C)(=O)=O)c2)c2c(c(Nc3ccc(I)cc3F)c(F)c(=O)n2C)c1=O [Example 13, N-(3-(3-fluoro-4-(2-fluoro-4-iodophenylamino)-6-isopropyl-1-methyl-2,5-dioxo-1,2,5,6-tetrahydropyrido[2,3-d]pyridazin-8-yl)phenyl)methanesulfonamide] | 7.06 | 7.58 | – | –
10 | CC(C)n1nc(-c2cccc(NS(=O)(=O)C3CC3)c2)c2c(c(Nc3ccc(I)cc3F)c(F)c(=O)n2C)c1=O [Example 16, N-(3-(3-fluoro-4-(2-fluoro-4-iodophenylamino)-6-isopropyl-1-methyl-2,5-dioxo-1,2,5,6-tetrahydropyrido[2,3-d]pyridazin-8-yl)phenyl)cyclopropanesulfonamide] | 7.50 | 7.71 | – | –
11 | C=CCn1nc(-c2cccc(NC(C)=O)c2)c2c(c(Nc3ccc(I)cc3F)c(Cl)c(=O)n2C)c1=O [Example 38, N-(3-(6-allyl-3-chloro-4-(2-fluoro-4-iodophenylamino)-1-methyl-2,5-dioxo-1,2,5,6-tetrahydropyrido[2,3-d]pyridazin-8-yl)phenyl)acetamide] | – | 7.68 | – | –
12 | CC(=O)Nc1cccc(-c2nn(CC(O)CO)c(=O)c3c(Nc4ccc(I)cc4F)c(Cl)c(=O)n(C)c23)c1 (stereo not shown) [Example 39, N-(3-(3-chloro-6-(2,3-dihydroxypropyl)-4-((2-fluoro-4-iodophenyl)amino)-1-methyl-2,5-dioxo-1,2,5,6-tetrahydropyrido[2,3-d]pyridazin-8-yl)phenyl)acetamide] | – | 7.64 | – | –

The next lines start with results.

Row | pIC50 (HT-29 cells) | pIC50 (A-375 cells) | SMILES | IC50 (HT-29 cells; read-out: HT29 IC50 (nM)) | IC50 (A-375 cells; read-out: A375 IC50 (nM))
13 | 7.38 | 7.82 | CC(C)C(=O)Nc1cccc(-c2nn(C3CC3)c(=O)c3c(Nc4ccc(I)cc4F)c(F)c(=O)n(C)c23)c1 [Example 3, N-(3-(6-cyclopropyl-3-fluoro-4-(2-fluoro-4-iodophenylamino)-1-methyl-2,5-dioxo-1,2,5,6-tetrahydropyrido[2,3-d]pyridazin-8-yl)phenyl)isobutyramide] | – | –
14 | 8.19 | 8.32 | CCS(=O)(=O)Nc1cccc(-c2nn(C3CC3)c(=O)c3c(Nc4ccc(I)cc4F)c(F)c(=O)n(C)c23)c1 [Example 6, N-(3-(6-cyclopropyl-3-fluoro-4-(2-fluoro-4-iodophenylamino)-1-methyl-2,5-dioxo-1,2,5,6-tetrahydropyrido[2,3-d]pyridazin-8-yl)phenyl)ethanesulfonamide] | – | –
15 | 8.39 | 8.46 | CC(C)S(=O)(=O)Nc1cccc(-c2nn(C3CC3)c(=O)c3c(Nc4ccc(I)cc4F)c(F)c(=O)n(C)c23)c1 [Example 7, N-(3-(6-cyclopropyl-3-fluoro-4-(2-fluoro-4-iodophenylamino)-1-methyl-2,5-dioxo-1,2,5,6-tetrahydropyrido[2,3-d]pyridazin-8-yl)phenyl)propane-2-sulfonamide] | – | –
16 | 7.22 | 7.21 | CCC(=O)Nc1cccc(-c2nn(C(C)C)c(=O)c3c(Nc4ccc(I)cc4F)c(F)c(=O)n(C)c23)c1 [Example 10, N-(3-(3-fluoro-4-(2-fluoro-4-iodophenylamino)-6-isopropyl-1-methyl-2,5-dioxo-1,2,5,6-tetrahydropyrido[2,3-d]pyridazin-8-yl)phenyl)propionamide] | – | –
17 | 8.19 | 7.71 | CCS(=O)(=O)Nc1cccc(-c2nn(C(C)C)c(=O)c3c(Nc4ccc(I)cc4F)c(F)c(=O)n(C)c23)c1 [Example 14, N-(3-(3-fluoro-4-(2-fluoro-4-iodophenylamino)-6-isopropyl-1-methyl-2,5-dioxo-1,2,5,6-tetrahydropyrido[2,3-d]pyridazin-8-yl)phenyl)ethanesulfonamide] | – | –
18 | 6.82 | 7.46 | CC(C)n1nc(-c2cccc(NS(=O)(=O)C(C)C)c2)c2c(c(Nc3ccc(I)cc3F)c(F)c(=O)n2C)c1=O [Example 15, N-(3-(3-fluoro-4-(2-fluoro-4-iodophenylamino)-6-isopropyl-1-methyl-2,5-dioxo-1,2,5,6-tetrahydropyrido[2,3-d]pyridazin-8-yl)phenyl)propane-2-sulfonamide] | – | –

— patent US10022374B2, “Certain protein kinase inhibitors” (Shanghai Fochon Pharmaceutical Co., Ltd., priority 2013, dated 2018)
